From patent publication US7314969B2, “Methods and compositions for the introduction of molecules into cells” (priority 1999, dated 2008)
Read-outs that look alike come from different tables or passages of the source.

Tests used:
[1] = test system: embryogenic soybean callus; assay: Effect of media constituents on growth of embryogenic soybean callus in B1-30; type: cell-based
Description: In another embodiment of the present invention, a novel culture media may be used to stimulate high frequency production of embryogenic soybean callus. Improvement varied with the genotype being cultured. […] The inclusion of one or more of four media constituents, coconut water, myoinositol, phytic acid and inorganic phosphate concentration, enhanced embryogenic callus production and allowed significant improvements to be made to transgenic clone production in terms of number of clones recovered, embryo morphology, and reduction in the time needed to identify the clones and regenerate plants from them. The medium of Ranch et al., 1985 (referred to herein as B1-30) was used as the basal medium. An example of the medium of the present invention is B1-30 3Co5My0.25PA0.5K (footnote, Table 5). Although this medium is a preferred emobodiment of growth medium, other conventional media may be utilized in the practice of the invention.
Coconut water has been included in tissue culture media for over 50 years. Coconut water is liquid taken from coconuts to promote growth in plant tissue cultures. It is deproteinized then filter-sterilized. An example is Sigma Biosciences' Cat. No. C5915. […] Most commonly coconut water is used at concentrations of between 5% and 10% by volume of the final culture medium. The role of coconut water in stimulating the growth of embryogenic callus in soybean was investigated and it was discovered that its effect on cotyledon explants routinely used to initiate embryogenic callus of soybean was detrimental when tested at these concentrations.
One key component of coconut water is myoinositol (Pollard et al., 1961). In an attempt to improve the growth of embryogenic soybean callus with components of coconut water, it was discovered that myoinositol was effective in this regard. Myoinositol has been included in tissue culture media for a variety of plant species. Although apparently not required for all species (Halperin, 1966), it is routinely included in media such as the widely used Murashige and Skoog formulation (Murashige and Skoog, 1962) at a concentration of 100 mg/l. It is at this concentration that it has been included in media used for the culture of embryogenic callus of soybean (e.g., see Ranch et al., 1985).
There are no known reports of the inclusion of phytic acid in culture media for any plant species. Soybean seeds are rich in natural chelating agents, the most prominent of which is phytic acid (Gibson and Ullah, 1990). Substantial amounts of phosphate are stored in seeds in the form of phytate (Raboy, 1990). It is possible that the capacity of phytic acid to sequester inorganic phosphate has a significant impact upon C partitioning into either starch or sucrose. At 1 gm/l in B1-30, embryogenic callus of a range of genotypes exuded starch, possibly confirming the impact of phytic acid on C partitioning. […] Best results over many passages were obtained with the addition of about 5 mg/l to about 250 mg/l phytic acid to the culture medium depending on the genotype.
Inorganic phosphorous in the form of KH2PO4, in excess of the amount conventionally used, was added to the base medium (B1-30) along with myoinositol and coconut water. This medium was tested against B1-30 supplemented with phytic acid in addition to KH2PO4, myoinositol and coconut water.

[2] = test system: DH5 cells; type: cell-based, E. coli; settings: 10 mg/l tetracycline
Method: One microgram of supercoiled pSB1 was added to 1.0 ml of sterile ddH2O and briefly vortexed. […] For a control SB1 plasmid was used without the addition of any cationic polypeptides. Transformation of bacteria was carried out as described in Example 17. Briefly, subcloning efficient DH5 cells from Invitrogen were transformed. Ten microliters of cells were mixed with 0.1 ml of YP medium (10 g/L peptone, 5 g/L yeast extract, and 5 g/L NaCl). The cells were pipeted in the center of a YP plate (same as above plus 15.0 g/L agar) and allowed to dry in a laminar flow hood. The pSB1 plus or minus cationic polypeptides was introduced into the cells using an aerosol beam injector as described in parent U.S. patent application Ser. No. 09/724,265. After about 1 hour of incubation at 37° C., the aerosol beamed cells plus the YP medium were cut out as a slab and placed on YP medium with 10 mg/1 tetracycline. Plasmid SB1 harbors resistance to the antibiotic tetracycline. The cells were grown overnight at 37° C. and then evaluated for the presence of colonies that were growing on the medium. If the plasmid pSB1 were sheared it would not replicate in the cell, thus no antibiotic resistant colony would have formed, however, if the plasmid was not sheared it could replicate once inside the cell and an antibiotic colony would have appeared.

[3] = test system: bacterial cells; type: cell-based, E. coli
Method: Transformation of bacteria using the method of the invention was accomplished as follows: competent E. coli DH5 alpha (Gibco BRL) or HB101 cells were thawed on ice and 5 to 50 microliters were combined with 0.2 ml LB broth. The mixture was pipetted to the center of a plate of LB agar (1.5%) containing 100 mg/l ampicillin and allowed to dry. Aerosol beam parameters were the same as those described previously (Example 1) except as noted in this Example. A pUC-derived plasmid encoding for resistance to the antibiotic ampicillin was delivered to the bacterial cells, as is known in the art. The concentration of DNA ranged from about 1.0 to 1000 μg/ml in 10 mM Tris (pH7.0) or a carbohydrate molecule, such as 1 g/l sucrose. The nebulizing pressure was from about 10 to about 40 psi, preferably 30 to 40 psi. The entrainment temperature was maintained in a given experiment and ranged between experiments from about 24° to about 55° C., and was preferably maintained at about 42° to about 55° C. and most preferably at about 55° C. Various sample flow rates were tested ranging from about 0.25 ml/hour to about 2.0 ml/hour (about 4 μl/min. to about 33 μl/min.). Preferably the flow rate was about 8.0 μl/minute to about 17.0 μl/minute.
Nucleic acid and protein were simultaneously delivered into bacterial cells. Preparation of bacteria and parameters for the aerosol beam apparatus were the same as described previously for delivery of DNA into bacteria (Example 12). The same buffer, plasmid, and plasmid concentration was used as described in the transformation of bacteria. Ribonuclease A (RNASE A) (Sigma cat. no. R6513) was added to the DNA sample at a final concentration of 2.5 μg/ml.
As a control, RNASE A at the same concentration used for beaming was pipetted on the cells after the cells were beamed with DNA only. […] To verify that the RNASE A was not degrading the plasmid, the plasmid treated with RNASE A was run on a standard 1% agarose gel. After staining the DNA with ethidium bromide, the DNA appeared intact and no degradation was evident. […]

[4] = 1 microgram pSB1 in 1.0 ml plus 1.0 ul of 2.0 ug/ul polyamine
[5] = 1 microgram pSB1 in 1.0 ml plus 2.0 ul of 20 ug/ul cationic polypeptide

O=P([O-])(O)O.[K+] [KH2PO4]
effect on embryogenic soybean callus ([1]; 500 and 1000 mg/l added to B1-30 with myoinositol and coconut water, with and without phytic acid): Beneficial effects

O[C@H]1[C@H](O)[C@@H](O)[C@H](O)[C@@H](O)[C@H]1O [myoinositol]
effect on growth of embryogenic soybean callus ([1]; up to 10 g/l, alone or in combination with coconut water): pronounced and beneficial effect

O=P(O)(O)O[C@H]1[C@H](OP(=O)(O)O)[C@@H](OP(=O)(O)O)[C@H](OP(=O)(O)O)[C@@H](OP(=O)(O)O)[C@H]1OP(=O)(O)O [phytic acid, inositolhexaphosphoric acid]
rate of growth of embryogenic callus ([1]; 1, 5, 10, 50, 100, 250, 500 and 1000 mg/l in B1-30, initial culture passage and/or maintenance as stock culture): significantly increased | growth of soybean callus after initial starch exudation ([1]; 1 gm/l in B1-30, range of genotypes): grew very vigorously | effect on embryogenic callus ([1]; 3000 mg/l, callus browned and died): clear detrimental effect

NCCCCNCCCN [spermidine]
transformed colonies growing per plate [2, 4]: about 500 colonies per plate

NCCCNCCCCNCCCN [spermine]
transformed colonies growing per plate [2, 4]: about 500 colonies per plate

Poly-L-Lysine
transformed colonies growing per plate [2, 5]: about 500 colonies per plate

Poly-L-Ornithine
transformed colonies growing per plate [2, 5]: about 500 colonies per plate

B1: RNASE A: Ribonuclease A (Sigma cat. no. R6513) (protein, UniProt P61823 27-150, looked up)
Ribonuclease pancreatic: KETAAAKFERQHMDSSTSAASSSNYCNQMMKSRNLTKDRCKPVNTFVHESLADVQAVCSQKNVACKNGQTNCYQSYSTMSITDCRETGSSKYPNCAYKTTQANKHIIVACEGNPYVPVHFDASV
colonies on medium containing ampicillin ([3]; 2.5 μg/ml beamed together with DNA): no colonies were observed | colonies on medium containing ampicillin ([3]; same concentration pipetted on the cells after beaming with DNA only): transformed colonies grew

B2: inactivated RNASE A: RNASE A inactivated with diethylpyrocarbonate (DEP) (protein, UniProt P61823 27-150, looked up)
Ribonuclease pancreatic: KETAAAKFERQHMDSSTSAASSSNYCNQMMKSRNLTKDRCKPVNTFVHESLADVQAVCSQKNVACKNGQTNCYQSYSTMSITDCRETGSSKYPNCAYKTTQANKHIIVACEGNPYVPVHFDASV
modifications: inactivated with diethylpyrocarbonate
transformation of bacteria ([3]; RNASE A inactivated with diethylpyrocarbonate, beamed with DNA): normal transformation of bacteria
